Columns and labels:
ERK5 (MAPK7) [1] = molecular target: T1, ERK5 (MAPK7) (Homo sapiens, UniProt Q13164); test: FRET-based Z'-LYTE in vitro kinase assay, single concentration ([…]), positive control; type: biochemical
ERK5 (MAPK7) [2] = molecular target: T1, ERK5 (MAPK7); test: FRET-based Z'-LYTE in vitro kinase assay, […] ng ERK5 (ab126913), […] ATP; type: biochemical

T1 sequence (Q13164 2-816): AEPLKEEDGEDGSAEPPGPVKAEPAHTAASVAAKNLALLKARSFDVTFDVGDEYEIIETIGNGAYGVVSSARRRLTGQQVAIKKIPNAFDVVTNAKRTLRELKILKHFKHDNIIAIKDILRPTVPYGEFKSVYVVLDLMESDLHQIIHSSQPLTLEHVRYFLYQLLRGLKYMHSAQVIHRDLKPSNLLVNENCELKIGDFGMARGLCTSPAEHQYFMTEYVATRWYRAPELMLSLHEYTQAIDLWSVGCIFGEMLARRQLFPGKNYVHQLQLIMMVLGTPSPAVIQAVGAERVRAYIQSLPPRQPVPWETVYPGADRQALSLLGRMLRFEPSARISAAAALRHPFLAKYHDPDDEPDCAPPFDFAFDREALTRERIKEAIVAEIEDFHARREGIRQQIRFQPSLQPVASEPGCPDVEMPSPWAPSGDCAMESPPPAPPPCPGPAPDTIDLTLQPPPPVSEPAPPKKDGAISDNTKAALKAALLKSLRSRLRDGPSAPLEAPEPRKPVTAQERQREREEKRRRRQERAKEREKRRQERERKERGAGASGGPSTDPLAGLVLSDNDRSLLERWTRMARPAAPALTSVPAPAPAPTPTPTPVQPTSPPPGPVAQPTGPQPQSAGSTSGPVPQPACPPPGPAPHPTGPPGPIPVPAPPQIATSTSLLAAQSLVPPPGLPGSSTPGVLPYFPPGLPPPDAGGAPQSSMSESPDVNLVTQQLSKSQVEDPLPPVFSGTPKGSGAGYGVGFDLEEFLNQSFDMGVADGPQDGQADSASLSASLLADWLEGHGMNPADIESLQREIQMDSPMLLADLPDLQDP

| Compound | inhibition at 5 µM (ERK5 (MAPK7) [1]) | IC50 (ERK5 (MAPK7) [2]) |
| --- | --- | --- |
| CCOc1cc(N2CCC(O)CC2)ccc1Nc1ncc2c(n1)N(C)c1ccccc1C(=O)N2C [XMD8-92] | 56% |  |
| CC(C)CCOc1cc(C(=O)C[n+]2cn(CCC(C)C)c3ccccc32)c(OCCC(C)C)c2ccccc12 [MHJ-627, 3-(2-(1,4-bis(isopentyloxy)naphthalen-2-yl)-2-oxoethyl)-1-isopentyl-1H-benzo[d]imidazol-3-ium bromide] |  | 0.91 µM |

Reference: article PMC10377775, “Identification of a Novel ERK5 (MAPK7) Inhibitor, MHJ-627, and Verification of Its Potent Anticancer Efficacy in Cervical Cancer HeLa Cells” (Current Issues in Molecular Biology, 2023)
